# Molecular target: T1, FMDV 3Cpro (Foot-and-mouth disease virus A, UniProt A0A097I315)
# Assay: biochemical
# Design: species or system FMDV A/IND287/96 strain (serotype A)
# Conditions: FRET assay (IC50)
row,Structure (SMILES),IC50 [nM]
1,CC(C)C[C@H](NC(=O)OCC(C)(C)Sc1ccccc1)C(=O)N[C@H](C#N)C[C@@H]1CCNC1=O [Compound D1f],> 25000
2,[2H]C([2H])(OC(=O)N[C@@H](CC(C)C)C(=O)N[C@H](C=O)C[C@@H]1CCNC1=O)C(C)(C)Sc1ccccc1 [Compound D2c],1520 ± 20
3,[2H]C([2H])(OC(=O)N[C@@H](CC(C)C)C(=O)N[C@@H](C[C@@H]1CCNC1=O)C(O)S(=O)(=O)[O-])C(C)(C)Sc1ccccc1.[Na+] (stereo partly drawn) [Compound D2d],1150 ± 70
4,CC(C)C[C@H](NC(=O)OCC(C)(C)[S+]([O-])c1ccccc1)C(=O)N[C@H](C=O)C[C@@H]1CCNC1=O (stereo partly drawn) [Compound D3c],1140 ± 80
5,CC(C)C[C@H](NC(=O)OCC(C)(C)[S+]([O-])c1ccccc1)C(=O)N[C@@H](C[C@@H]1CCNC1=O)C(O)S(=O)(=O)O (stereo partly drawn) [Compound D3d],1050 ± 210
6,CC(C)C[C@H](NC(=O)OCC(C)(C)S(=O)(=O)c1ccccc1)C(=O)N[C@H](C=O)C[C@@H]1CCNC1=O [Compound D4c],900 ± 280
7,CC(C)C[C@H](NC(=O)OCC(C)(C)S(=O)(=O)c1ccccc1)C(=O)N[C@@H](C[C@@H]1CCNC1=O)C(O)S(=O)(=O)O (stereo partly drawn) [Compound D4d],650 ± 90
8,CC(C)C[C@H](NC(=O)OCC(C)(C)Sc1cccc(F)c1)C(=O)N[C@H](C=O)C[C@@H]1CCNC1=O [Compound D5c],3150 ± 490
9,CC(C)C[C@H](NC(=O)OCC(C)(C)Sc1ccc(F)cc1)C(=O)N[C@H](C=O)C[C@@H]1CCNC1=O [Compound D6c],910 ± 150
10,CC(C)C[C@H](NC(=O)OCC(C)(C)Sc1ccc(F)cc1)C(=O)N[C@@H](C[C@@H]1CCNC1=O)C(O)S(=O)(=O)O (stereo partly drawn) [Compound D6d],980 ± 110
11,CC(C)C[C@H](NC(=O)OCC(C)(C)Sc1cccc(Cl)c1)C(=O)N[C@H](C=O)C[C@@H]1CCNC1=O [Compound D7c],1500 ± 280
12,CC(C)C[C@H](NC(=O)OCC(C)(C)Sc1cccc(Cl)c1)C(=O)N[C@@H](C[C@@H]1CCNC1=O)C(O)S(=O)(=O)O (stereo partly drawn) [Compound D7d],600 ± 10
13,CC(C)C[C@H](NC(=O)OCCSc1ccccc1)C(=O)N[C@H](C=O)C[C@@H]1CCNC1=O [Compound D8c],1350 ± 350
14,CC(C)C[C@H](NC(=O)OCCSc1ccccc1)C(=O)N[C@@H](C[C@@H]1CCNC1=O)C(O)S(=O)(=O)O (stereo partly drawn) [Compound D8d],1030 ± 240
15,CC(C)C[C@H](NC(=O)OCC(C)(C)Sc1nc2ccccc2[nH]1)C(=O)N[C@H](C=O)C[C@@H]1CCNC1=O [Compound D9c],2150 ± 340
16,CC(C)C[C@H](NC(=O)OCC(C)(C)Sc1nc2ccccc2[nH]1)C(=O)N[C@@H](C[C@@H]1CCNC1=O)C(O)S(=O)(=O)O (stereo partly drawn) [Compound D9d],1750 ± 920
17,CC(C)C[C@H](NC(=O)OCC(C)(C)Oc1ccc(Cl)cc1)C(=O)N[C@H](C=O)C[C@@H]1CCNC1=O [Compound D11c],690 ± 60
18,CC(C)C[C@H](NC(=O)OCC(C)(C)Oc1ccc(Cl)cc1)C(=O)N[C@@H](C[C@@H]1CCNC1=O)C(O)S(=O)(=O)O (stereo partly drawn) [Compound D11d],490 ± 50
19,[2H]C([2H])(OC(=O)N[C@@H](CC(C)C)C(=O)N[C@H](C=O)C[C@@H]1CCNC1=O)C(C)(C)Oc1ccc(Cl)cc1 [Compound D12c],140 ± 20
20,[2H]C([2H])(OC(=O)N[C@@H](CC(C)C)C(=O)N[C@@H](C[C@@H]1CCNC1=O)C(O)S(=O)(=O)[O-])C(C)(C)Oc1ccc(Cl)cc1.[Na+] (stereo partly drawn) [Compound D12d],190 ± 10
21,CC(C)C[C@H](NC(=O)OCC(C)(C)Oc1cccc(Cl)c1)C(=O)N[C@H](C=O)C[C@@H]1CCNC1=O [Compound D13c],670 ± 80
22,CC(C)C[C@H](NC(=O)OCC(C)(C)Oc1cccc(Cl)c1)C(=O)N[C@@H](C[C@@H]1CCNC1=O)C(O)S(=O)(=O)O (stereo partly drawn) [Compound D13d],650 ± 210
23,[2H]C([2H])(OC(=O)N[C@@H](CC(C)C)C(=O)N[C@H](C=O)C[C@@H]1CCNC1=O)C(C)(C)Oc1cccc(Cl)c1 [Compound D14c],500 ± 140

# Molecular target: T1, FMDV 3Cpro
# Assay: cell-based
# Design: species or system FMDV A/IND287/96 strain
# Conditions: Cell-based assay (EC50)
row,Structure (SMILES),EC50 [nM]
1,CC(C)C[C@H](NC(=O)OCC(C)(C)Sc1ccccc1)C(=O)N[C@H](C#N)C[C@@H]1CCNC1=O [Compound D1f],> 10000
2,[2H]C([2H])(OC(=O)N[C@@H](CC(C)C)C(=O)N[C@H](C=O)C[C@@H]1CCNC1=O)C(C)(C)Sc1ccccc1 [Compound D2c],2500 ± 420
3,[2H]C([2H])(OC(=O)N[C@@H](CC(C)C)C(=O)N[C@@H](C[C@@H]1CCNC1=O)C(O)S(=O)(=O)[O-])C(C)(C)Sc1ccccc1.[Na+] (stereo partly drawn) [Compound D2d],2910 ± 430
4,CC(C)C[C@H](NC(=O)OCC(C)(C)[S+]([O-])c1ccccc1)C(=O)N[C@H](C=O)C[C@@H]1CCNC1=O (stereo partly drawn) [Compound D3c],> 10000
5,CC(C)C[C@H](NC(=O)OCC(C)(C)[S+]([O-])c1ccccc1)C(=O)N[C@@H](C[C@@H]1CCNC1=O)C(O)S(=O)(=O)O (stereo partly drawn) [Compound D3d],> 10000
6,CC(C)C[C@H](NC(=O)OCC(C)(C)S(=O)(=O)c1ccccc1)C(=O)N[C@H](C=O)C[C@@H]1CCNC1=O [Compound D4c],> 10000
7,CC(C)C[C@H](NC(=O)OCC(C)(C)S(=O)(=O)c1ccccc1)C(=O)N[C@@H](C[C@@H]1CCNC1=O)C(O)S(=O)(=O)O (stereo partly drawn) [Compound D4d],> 10000
8,CC(C)C[C@H](NC(=O)OCC(C)(C)Sc1cccc(F)c1)C(=O)N[C@H](C=O)C[C@@H]1CCNC1=O [Compound D5c],1000 ± 280
9,CC(C)C[C@H](NC(=O)OCC(C)(C)Sc1ccc(F)cc1)C(=O)N[C@H](C=O)C[C@@H]1CCNC1=O [Compound D6c],5150 ± 640
10,CC(C)C[C@H](NC(=O)OCC(C)(C)Sc1ccc(F)cc1)C(=O)N[C@@H](C[C@@H]1CCNC1=O)C(O)S(=O)(=O)O (stereo partly drawn) [Compound D6d],5850 ± 350
11,CC(C)C[C@H](NC(=O)OCC(C)(C)Sc1cccc(Cl)c1)C(=O)N[C@H](C=O)C[C@@H]1CCNC1=O [Compound D7c],1050 ± 210
12,CC(C)C[C@H](NC(=O)OCC(C)(C)Sc1cccc(Cl)c1)C(=O)N[C@@H](C[C@@H]1CCNC1=O)C(O)S(=O)(=O)O (stereo partly drawn) [Compound D7d],1200 ± 140
13,CC(C)C[C@H](NC(=O)OCCSc1ccccc1)C(=O)N[C@H](C=O)C[C@@H]1CCNC1=O [Compound D8c],1750 ± 210
14,CC(C)C[C@H](NC(=O)OCCSc1ccccc1)C(=O)N[C@@H](C[C@@H]1CCNC1=O)C(O)S(=O)(=O)O (stereo partly drawn) [Compound D8d],1950 ± 220
15,CC(C)C[C@H](NC(=O)OCC(C)(C)Sc1nc2ccccc2[nH]1)C(=O)N[C@H](C=O)C[C@@H]1CCNC1=O [Compound D9c],> 10000
16,CC(C)C[C@H](NC(=O)OCC(C)(C)Sc1nc2ccccc2[nH]1)C(=O)N[C@@H](C[C@@H]1CCNC1=O)C(O)S(=O)(=O)O (stereo partly drawn) [Compound D9d],> 10000
17,CC(C)C[C@H](NC(=O)OCC(C)(C)Oc1ccc(Cl)cc1)C(=O)N[C@H](C=O)C[C@@H]1CCNC1=O [Compound D11c],640 ± 150
18,CC(C)C[C@H](NC(=O)OCC(C)(C)Oc1ccc(Cl)cc1)C(=O)N[C@@H](C[C@@H]1CCNC1=O)C(O)S(=O)(=O)O (stereo partly drawn) [Compound D11d],980 ± 1110
19,[2H]C([2H])(OC(=O)N[C@@H](CC(C)C)C(=O)N[C@H](C=O)C[C@@H]1CCNC1=O)C(C)(C)Oc1ccc(Cl)cc1 [Compound D12c],350 ± 100
20,[2H]C([2H])(OC(=O)N[C@@H](CC(C)C)C(=O)N[C@@H](C[C@@H]1CCNC1=O)C(O)S(=O)(=O)[O-])C(C)(C)Oc1ccc(Cl)cc1.[Na+] (stereo partly drawn) [Compound D12d],430 ± 310
21,CC(C)C[C@H](NC(=O)OCC(C)(C)Oc1cccc(Cl)c1)C(=O)N[C@H](C=O)C[C@@H]1CCNC1=O [Compound D13c],5340 ± 1190
22,CC(C)C[C@H](NC(=O)OCC(C)(C)Oc1cccc(Cl)c1)C(=O)N[C@@H](C[C@@H]1CCNC1=O)C(O)S(=O)(=O)O (stereo partly drawn) [Compound D13d],7700 ± 850
23,[2H]C([2H])(OC(=O)N[C@@H](CC(C)C)C(=O)N[C@H](C=O)C[C@@H]1CCNC1=O)C(C)(C)Oc1cccc(Cl)c1 [Compound D14c],3380 ± 390

# Tested on: not listed separately
# Assay: in vitro
# Conditions: human
row,Structure (SMILES),CC50 [nM]
1,CC(C)C[C@H](NC(=O)OCC(C)(C)Sc1ccccc1)C(=O)N[C@H](C#N)C[C@@H]1CCNC1=O [Compound D1f],> 50000
2,[2H]C([2H])(OC(=O)N[C@@H](CC(C)C)C(=O)N[C@H](C=O)C[C@@H]1CCNC1=O)C(C)(C)Sc1ccccc1 [Compound D2c],> 50000
3,[2H]C([2H])(OC(=O)N[C@@H](CC(C)C)C(=O)N[C@@H](C[C@@H]1CCNC1=O)C(O)S(=O)(=O)[O-])C(C)(C)Sc1ccccc1.[Na+] (stereo partly drawn) [Compound D2d],> 50000
4,CC(C)C[C@H](NC(=O)OCC(C)(C)[S+]([O-])c1ccccc1)C(=O)N[C@H](C=O)C[C@@H]1CCNC1=O (stereo partly drawn) [Compound D3c],> 50000
5,CC(C)C[C@H](NC(=O)OCC(C)(C)[S+]([O-])c1ccccc1)C(=O)N[C@@H](C[C@@H]1CCNC1=O)C(O)S(=O)(=O)O (stereo partly drawn) [Compound D3d],> 50000
6,CC(C)C[C@H](NC(=O)OCC(C)(C)S(=O)(=O)c1ccccc1)C(=O)N[C@H](C=O)C[C@@H]1CCNC1=O [Compound D4c],> 50000
7,CC(C)C[C@H](NC(=O)OCC(C)(C)S(=O)(=O)c1ccccc1)C(=O)N[C@@H](C[C@@H]1CCNC1=O)C(O)S(=O)(=O)O (stereo partly drawn) [Compound D4d],> 50000
8,CC(C)C[C@H](NC(=O)OCC(C)(C)Sc1cccc(F)c1)C(=O)N[C@H](C=O)C[C@@H]1CCNC1=O [Compound D5c],> 50000
9,CC(C)C[C@H](NC(=O)OCC(C)(C)Sc1ccc(F)cc1)C(=O)N[C@H](C=O)C[C@@H]1CCNC1=O [Compound D6c],> 50000
10,CC(C)C[C@H](NC(=O)OCC(C)(C)Sc1ccc(F)cc1)C(=O)N[C@@H](C[C@@H]1CCNC1=O)C(O)S(=O)(=O)O (stereo partly drawn) [Compound D6d],> 50000
11,CC(C)C[C@H](NC(=O)OCC(C)(C)Sc1cccc(Cl)c1)C(=O)N[C@H](C=O)C[C@@H]1CCNC1=O [Compound D7c],> 50000
12,CC(C)C[C@H](NC(=O)OCC(C)(C)Sc1cccc(Cl)c1)C(=O)N[C@@H](C[C@@H]1CCNC1=O)C(O)S(=O)(=O)O (stereo partly drawn) [Compound D7d],> 50000
13,CC(C)C[C@H](NC(=O)OCCSc1ccccc1)C(=O)N[C@H](C=O)C[C@@H]1CCNC1=O [Compound D8c],> 50000
14,CC(C)C[C@H](NC(=O)OCCSc1ccccc1)C(=O)N[C@@H](C[C@@H]1CCNC1=O)C(O)S(=O)(=O)O (stereo partly drawn) [Compound D8d],> 50000
15,CC(C)C[C@H](NC(=O)OCC(C)(C)Sc1nc2ccccc2[nH]1)C(=O)N[C@H](C=O)C[C@@H]1CCNC1=O [Compound D9c],> 50000
16,CC(C)C[C@H](NC(=O)OCC(C)(C)Sc1nc2ccccc2[nH]1)C(=O)N[C@@H](C[C@@H]1CCNC1=O)C(O)S(=O)(=O)O (stereo partly drawn) [Compound D9d],> 50000
17,CC(C)C[C@H](NC(=O)OCC(C)(C)Oc1ccc(Cl)cc1)C(=O)N[C@H](C=O)C[C@@H]1CCNC1=O [Compound D11c],> 50000
18,CC(C)C[C@H](NC(=O)OCC(C)(C)Oc1ccc(Cl)cc1)C(=O)N[C@@H](C[C@@H]1CCNC1=O)C(O)S(=O)(=O)O (stereo partly drawn) [Compound D11d],> 50000
19,[2H]C([2H])(OC(=O)N[C@@H](CC(C)C)C(=O)N[C@H](C=O)C[C@@H]1CCNC1=O)C(C)(C)Oc1ccc(Cl)cc1 [Compound D12c],> 50000
20,[2H]C([2H])(OC(=O)N[C@@H](CC(C)C)C(=O)N[C@@H](C[C@@H]1CCNC1=O)C(O)S(=O)(=O)[O-])C(C)(C)Oc1ccc(Cl)cc1.[Na+] (stereo partly drawn) [Compound D12d],> 50000
21,CC(C)C[C@H](NC(=O)OCC(C)(C)Oc1cccc(Cl)c1)C(=O)N[C@H](C=O)C[C@@H]1CCNC1=O [Compound D13c],> 50000
22,CC(C)C[C@H](NC(=O)OCC(C)(C)Oc1cccc(Cl)c1)C(=O)N[C@@H](C[C@@H]1CCNC1=O)C(O)S(=O)(=O)O (stereo partly drawn) [Compound D13d],> 50000
23,[2H]C([2H])(OC(=O)N[C@@H](CC(C)C)C(=O)N[C@H](C=O)C[C@@H]1CCNC1=O)C(C)(C)Oc1cccc(Cl)c1 [Compound D14c],> 50000
